Source: PubChem BioAssay AID1259407 (Chemical Carcinogenesis Research Information System (CCRIS), 2018)
Calls of active or inactive are those of the source. The rule behind the calls is not given here.

Test system: CCRIS mutagenicity, Ames/micronucleus/aberration tests
Assay: CCRIS mutagenicity studies

Measured: mutagenic call

CCN(CC)c1ccc2c(-c3ccccc3C(=O)O)c3ccc(=[N+](CC)CC)cc-3oc2c1
inactive: Test System: AMES SALMONELLA TYPHIMURIUM, Strain/Indicator: TA97, Metabolic Activation: HAMSTER, LIVER, S-9, AROCLOR 1254 (10%), Method: PREINCUBATION inactive; negative | Test System: AMES SALMONELLA TYPHIMURIUM, Strain/Indicator: TA97, Metabolic Activation: HAMSTER, LIVER, S-9, AROCLOR 1254 (30%), Method: PREINCUBATION inactive; negative | Test System: AMES SALMONELLA TYPHIMURIUM, Strain/Indicator: TA97, Metabolic Activation: NONE, Method: PREINCUBATION inactive; negative | Test System: AMES SALMONELLA TYPHIMURIUM, Strain/Indicator: TA97, Metabolic Activation: RAT, LIVER, S-9, AROCLOR 1254 (10%), Method: PREINCUBATION inactive; negative | Test System: AMES SALMONELLA TYPHIMURIUM, Strain/Indicator: TA97, Metabolic Activation: RAT, LIVER, S-9, AROCLOR 1254 (30%), Method: PREINCUBATION inactive; negative | Test System: AMES SALMONELLA TYPHIMURIUM, Strain/Indicator: TA98, Metabolic Activation: HAMSTER, LIVER, S-9, AROCLOR 1254 (10%), Method: PREINCUBATION inactive; negative | Test System: AMES SALMONELLA TYPHIMURIUM, Strain/Indicator: TA98, Metabolic Activation: HAMSTER, LIVER, S-9, AROCLOR 1254 (30%), Method: PREINCUBATION inactive; negative | Test System: AMES SALMONELLA TYPHIMURIUM, Strain/Indicator: TA98, Metabolic Activation: NONE, Method: PREINCUBATION inactive; negative | Test System: AMES SALMONELLA TYPHIMURIUM, Strain/Indicator: TA98, Metabolic Activation: RAT, LIVER, S-9, AROCLOR 1254 (10%), Method: PREINCUBATION inactive; negative | Test System: AMES SALMONELLA TYPHIMURIUM, Strain/Indicator: TA98, Metabolic Activation: RAT, LIVER, S-9, AROCLOR 1254 (30%), Method: PREINCUBATION inactive; negative | Test System: AMES SALMONELLA TYPHIMURIUM, Strain/Indicator: TA100, Metabolic Activation: HAMSTER, LIVER, S-9, AROCLOR 1254 (10%), Method: PREINCUBATION inactive; negative | Test System: AMES SALMONELLA TYPHIMURIUM, Strain/Indicator: TA100, Metabolic Activation: HAMSTER, LIVER, S-9, AROCLOR 1254 (30%), Method: PREINCUBATION inactive; negative | Test System: AMES SALMONELLA TYPHIMURIUM, Strain/Indicator: TA100, Metabolic Activation: NONE, Method: PREINCUBATION inactive; negative | Test System: AMES SALMONELLA TYPHIMURIUM, Strain/Indicator: TA100, Metabolic Activation: RAT, LIVER, S-9, AROCLOR 1254 (10%), Method: PREINCUBATION inactive; negative | Test System: AMES SALMONELLA TYPHIMURIUM, Strain/Indicator: TA100, Metabolic Activation: RAT, LIVER, S-9, AROCLOR 1254 (30%), Method: PREINCUBATION inactive; negative | Test System: AMES SALMONELLA TYPHIMURIUM, Strain/Indicator: TA1535, Metabolic Activation: HAMSTER, LIVER, S-9, AROCLOR 1254 (5%), Method: PREINCUBATION inactive; negative | Test System: AMES SALMONELLA TYPHIMURIUM, Strain/Indicator: TA1535, Metabolic Activation: HAMSTER, LIVER, S-9, AROCLOR 1254 (10%), Method: PREINCUBATION inactive; negative | Test System: AMES SALMONELLA TYPHIMURIUM, Strain/Indicator: TA1535, Metabolic Activation: HAMSTER, LIVER, S-9, AROCLOR 1254 (30%), Method: PREINCUBATION inactive; negative | Test System: AMES SALMONELLA TYPHIMURIUM, Strain/Indicator: TA1535, Metabolic Activation: NONE, Method: PREINCUBATION inactive; negative | Test System: AMES SALMONELLA TYPHIMURIUM, Strain/Indicator: TA1535, Metabolic Activation: RAT, LIVER, S-9, AROCLOR 1254 (5%), Method: PREINCUBATION inactive; negative | Test System: AMES SALMONELLA TYPHIMURIUM, Strain/Indicator: TA1535, Metabolic Activation: RAT, LIVER, S-9, AROCLOR 1254 (10%), Method: PREINCUBATION inactive; negative | Test System: AMES SALMONELLA TYPHIMURIUM, Strain/Indicator: TA1535, Metabolic Activation: RAT, LIVER, S-9, AROCLOR 1254 (30%), Method: PREINCUBATION inactive; negative | Test System: AMES SALMONELLA TYPHIMURIUM, Strain/Indicator: TA1537, Metabolic Activation: HAMSTER, LIVER, S-9, AROCLOR 1254 (10%), Method: PREINCUBATION inactive; negative | Test System: AMES SALMONELLA TYPHIMURIUM, Strain/Indicator: TA1537, Metabolic Activation: NONE, Method: PREINCUBATION inactive; negative | Test System: AMES SALMONELLA TYPHIMURIUM, Strain/Indicator: TA1537, Metabolic Activation: RAT, LIVER, S-9, AROCLOR 1254 (10%), Method: PREINCUBATION inactive; negative | Test System: AMES SALMONELLA TYPHIMURIUM, Strain/Indicator: TA1538, Metabolic Activation: NONE, Method: STANDARD PLATE inactive; negative | Test System: AMES SALMONELLA TYPHIMURIUM, Strain/Indicator: TA1538, Metabolic Activation: RAT, LIVER, S-9, AROCLOR 1254, Method: STANDARD PLATE inactive; negative | Test System: CHINESE HAMSTER V-79, Strain/Indicator: V-79/6-THIOGUANINE, Metabolic Activation: NONE, Method: SUSPENSION/PLATE inactive; negative | Test System: CHINESE HAMSTER V-79, Strain/Indicator: V-79/6-THIOGUANINE, Metabolic Activation: RAT, LIVER, S-9, PHENOBARBITAL AND BETA-NAPHTHOFLAVONE, Method: SUSPENSION/PLATE inactive; negative
active: Test System: AMES SALMONELLA TYPHIMURIUM, Strain/Indicator: TA98, Metabolic Activation: RAT, LIVER, S-9, BETA-NAPHTHOFLAVONE AND PHENOBARBITAL, Method: PREINCUBATION active; positive
